Consider 2 compounds from ChEMBL document CHEMBL1151680, “Cytotoxic amides from the octocoral Telesto riisei” (1996).

Values after ≈ are worked out from the molar mass of the structure shown.

In the assay the test system is P388. In words: Cytotoxicity against mouse P388 cells. The conditions noted are these: read-out: ED50 (the source's name). Format: functional.

As for `CC(=O)OCC(C)CCC[C@@H](C)[C@H]1CC[C@H]2[C@@H]3C[C@@H](O)[C@@]4(O)C[C@@H](O)CC[C@]4(C)[C@H]3CC[C@]12C` (some centres not stated), the EC50 came out at 2.4 µg/mL (≈ 5.01 µM).

In the case of `CC(CO)CCC[C@@H](C)[C@H]1CC[C@H]2[C@@H]3C[C@@H](O)[C@@]4(O)C[C@@H](O)CC[C@]4(C)[C@H]3CC[C@]12C` (some centres not stated), the EC50 came to 1.3 µg/mL (≈ 2.98 µM).
